Laboratory results published in patent US7186727B2, “Pyridyl-substituted spiro-hydantoin compounds and use thereof” (Bristol-Myers Squibb Company, priority 2004, dated 2007).

Assay: Microsomal liver assay (rate of oxidative metabolism)
Type: in vitro ADME
Conditions: human liver microsomes; 3 μM test compound, 1 mg/mL microsomal proteins, 37° C.
Procedure: Mouse and rat liver microsomes were purchased from XenoTech LLC (Kansas City, Kans.), and human liver microsomes were obtained from BD Gentest (Woburn, Mass.).
The oxidative metabolism in liver microsomes of various species was studied under the following condition: 3 μM test compound (organic solvent content <0.1%), 1 mg/mL microsomal proteins, 1 mM β-nicotinamide adenine dinucleotide phosphase (β-NADPH), 100 mM phosphate buffer (pH 7.4), and 6.7 MM magnesium chloride. The reaction (n=3) was initiated by the addition of NADPH followed by incubation at 37° C. for 20 min. Aliquots of samples (0.1 mL) were taken at 0, 5, and 20 min, and the reaction was quenched by the addition of three volumes of acetonitrile. Samples were stored at −20° C. until analysis.
The rate of oxidation in liver microsomes was determined from the following equation: rate (nmol/min/mg protein)=k*C0/Cprotein, where k (1/min) is the turnover rate constant estimated from non-linear regression of the percent compound remaining (y)-time (t) curve using the equation y=y0*exp(−k*t); C0 is initial drug concentration (μM), and Cprotein is microsomal protein concentration (mg/mL).
Rates of metabolism are “binned” (classified) as follows: […]

rate of metabolism: 0.2 nmol/min/mg
Compound: CN1C(=O)N(c2cc(Cl)cc(Cl)c2)C(=O)[C@]12CN(c1ccccn1)C[C@H]2c1ccc(C#N)cc1 (relative stereo) [4-[(5S*,9R *)-3-(3,5-dichlorophenyl)-1-methyl-2,4-dioxo-7-pyridin-2-yl-1,3,7-triazaspiro[4.4]non-9-yl]-benzonitrile]
